# According to patent US20250019341A1, “COMPOUNDS AND METHOD OF USE THEREOF FOR TREATING BACTERIAL DISEASES” (PEKING UNIVERSITY, priority 2021, published 2025):
# Where two headings read alike, the source gives them in different places.
# Key:
# [1] = system: P. syringae TTSS secretion (AvrPto, Pst DC3000); conditions: for abundance of AvrPto in total protein (bacteria): total / intracellular protein; for abundance of AvrPto in total protein (bacteria) / inhibition of AvrPto secretion in Pst DC3000: immunoblot; for inhibition of AvrPto secretion in Pst DC3000: supernatant protein, indicated concentrations or dilutions
# [2] = system: Pst DC3000 TTSS gene transcription (avrPto, hrpL)
# Pst DC3000 = test: Growth curve of Pst DC3000 in KB medium; type: cell-based, P. syringae; conditions: 150 μM
# [3] = system: Pst T1 effector AvrPto secretion; test: AvrPto secretion of Pst T1 (immunoblot); type: cell-based; conditions: 24 h incubation, versus untreated bacteria
# [4] = system: Xcc8004 effector AvrAc secretion; test: AvrAC protein accumulation and secretion of Xcc8004 (immunoblot); type: cell-based; conditions: 24 h incubation, versus untreated bacteria
# Method: To determine AvrAC protein accumulation and secretion, Xcc8004 strain expressing HA-tagged AvrAC was cultivated at 28° C. in NYG rich medium (3 g/L yeast extract, 5 g/L peptone, 20 g/L glycerol, pH 7.0). […] Total and supernatants protein were analyzed by immunoblot by indicated antibodies.
# [5] = system: S. typhimurium effector SopF secretion; test: SopF protein accumulation and secretion of Salmonella Typhimurium (immunoblot); type: cell-based, Salmonella Typhimurium 14028S; conditions: 24 h incubation, versus untreated bacteria
# Method: To determine SopF protein accumulation and secretion, Salmonella Typhimurium 14028S expressing His-tagged SopF was cultivated at 37° C. in LB medium and then subcultured (1:100) in fresh 30 mL LB medium with erucamide or solvent to an OD600 of 0.2. After induction with 0.5 mM IPTG, whole cells and culture supernatants were separated by centrifugation at 5000 RPM for 10 min. The pellet was resuspended by PBS as cytoplasmic protein sample. The supernatants were filtered (0.22 μm pore-size) and then precipitated by adding trichloroacetic acid at a final concentration of 10% v/v, followed by incubation at 4° C. overnight and centrifugation (20000 g, 4° C., 30 min). The pellet was washed twice by cold acetone and analyzed by immunoblot using anti-His antibodies. For control, anti-DnaK antibodies were used.
# Pst DC3000 hrcQ mutant = test: Bacterial growth assay on N. benthamiana leaves; type: in vivo; conditions: 150 μM
# P. actinidiae = test: Bacterial canker of kiwifruit, leaf inoculation; type: in vivo; conditions: 1 mM, sprayed with bacteria on leaves
# [6] = system: Xanthomonas oryzae pv. oryzae (Xoo) isolate P6; type: in vivo, rice; conditions: 1 mM, Xoo P6, leaf clipping, 12 days after inoculation, versus solvent
# R. solanacearum = type: in vivo, tomato; conditions: 1 mM, soil drenching, versus solvent
# [7] = system: Pst DC3000 TTSS injectisome (Hrp pilus) assembly; type: cell-based, P. syringae; conditions: 0.2 mM, TEM
# [8] = system: Pst DC3000 injectisome structural proteins (HrpA, HrcQb); test: Injectisome structural proteins in cellular and membrane fractions (quantitative proteomics, immunoblot); type: cell-based, P. syringae; conditions: 0.2 mM
# Method: To isolate the membrane fraction, bacterial cells were harvested, washed with 10 mM Tris-HCl at pH 8.0, centrifuged and the supernatants were carefully discarded. The cell pellets were then resuspended in spheroplast buffer (20 mM Tris pH 8.0, 20% sucrose, 1 mM Na-EDTA), incubated for 10 min and centrifuged. The pellets were then resuspended in ice hypotonic solution (sterile water) and the sample were incubated for 10 min on ice. After centrifugation, the resulting pellets were resuspended in 10 mM Tris-HCl at pH 8.0 and sonicated. After centrifugation, the supernatants were carefully transferred to new tubes and centrifuged again for 40 min. The pellets were washed by sterile water and centrifuged for another 40 min. The pellets were resuspended in water as membrane proteins.
structure (smiles),measurement,setting,value
"CCCCCCCCc1ccccc1CCCCCCCCCCCC(N)=O [Compound T3SI-21, 12-(2-octylphenyl)dodecanamide]",abundance of AvrPto in total protein (bacteria),[1],decrease
CCCCCCCCCCCCCC(N)=O [Compound T3SI-25],inhibition of AvrPto secretion in Pst DC3000,[1],effectively inhibited
CCCCCC/C=C\CCCCCCCC(N)=O [Compound T3SI-6],abundance of AvrPto in total protein (bacteria),[1],decrease
"C[S+]([O-])CCCCN=C=S (stereo not shown) [SFN, reference compound]",P. syringae TTSS gene expression,[2],preferentially inhibits
"CCCCCCCCCCCCCCCC(=O)NCCO [Compound T3SI-19, N-(2-hydroxyethyl)-Hexadecanamide]",inhibition of AvrPto secretion in Pst DC3000,[1],effectively inhibited
"CCCCCCCC/C=C\CCCCCCCCCCCC(=O)NCCO [Compound T3SI-18, N-(2-hydroxyethyl)-13(Z)-Docosenamide]",inhibition of AvrPto secretion in Pst DC3000,[1],effectively inhibited
CCCCCCCCCCCCCCCCCC(N)=O [Compound T3SI-8],inhibition of AvrPto secretion in Pst DC3000,[1],effectively inhibited
"CCCCCCCC/C=C\CCCCCCCCCCCC(N)=O (single isomer, unassigned) [Compound T3SI-1, erucamide]",growth of Pst DC3000,Pst DC3000; listed as Erucamide,does not affect
same,growth of Pst DC3000,Pst DC3000; listed as erucamide,no effect
same,secretion of AvrPto in Pst T1,[3]; listed as Erucamide,inhibits
same,secretion of AvrPto in Pst T1,[3]; listed as erucamide,significantly lower
same,secretion of AvrAc in Xcc8004,[4]; listed as Erucamide,inhibits
same,secretion of AvrAc in Xcc8004,[4]; listed as erucamide,significantly lower
same,secretion of SopF in S. typhimurium,[5]; listed as Erucamide,inhibits
same,secretion of SopF in S. typhimurium,[5]; listed as erucamide,significantly lower
same,Pst DC3000 hrcQ growth on N. benthamiana,Pst DC3000 hrcQ mutant,inhibited
same,"bacteria population in treated plants, less than in untreated plants","Pst DC3000 hrcQ mutant; N. benthamiana leaves, 3 days after inoculation",5 fold
same,disease symptoms caused by P. actinidiae on kiwifruit leaves,P. actinidiae; listed as Erucamide,decreased the disease symptoms
same,disease symptoms caused by P. actinidiae on kiwifruit leaves,P. actinidiae; listed as erucamide,significantly decrease the disease symptoms
same,rice bacterial blight lesion length,[6]; listed as Erucamide,protective effects
same,rice bacterial blight lesion length,[6]; listed as erucamide,significantly shorter
same,disease symptoms / virulence of R. solanacearum on tomato,R. solanacearum; listed as Erucamide,decreased the virulence
same,disease symptoms / virulence of R. solanacearum on tomato,R. solanacearum; listed as erucamide,significantly decreased disease symptoms
same,flagella production,[7],slightly blocked
same,Hrp pilus (TTSS injectisome) assembly,[7]; listed as Erucamide,inhibited
same,Hrp pilus (TTSS injectisome) assembly,[7]; listed as erucamide,significantly inhibited
same,bacteria that had Hrp pilus,[7]; erucamide treatment group,3.3%
same,bacteria that had flagella,[7]; erucamide treatment group,56.7%
same,HrpA and HrcQb accumulation in membrane,[8]; immunoblot,inhibited
same,levels of HrpA and HrcQb in cellular protein,[8]; immunoblot,did not change
same,amount of injectisome structure proteins in total protein,[8]; quantitative proteomics,not altered
same,injectisome structure protein accumulation in membrane,[8]; quantitative proteomics,reduced
same,concentration at which inhibition of AvrPto secretion was observed,[1]; Pst DC3000,6 µM
same,inhibition of AvrPto secretion in Pst DC3000,[1],effectively inhibited
same,inhibition of AvrPto secretion in Pst DC3000,[1]; listed as Erucamide,inhibits
same,inhibition of AvrPto secretion in Pst DC3000,[1]; listed as erucamide,gradually decreased with increasing concentration
same,inhibition of AvrPto secretion in Pst DC3000,[1]; listed as fraction 9,high activity
same,transcription activity of TTSS genes avrPto and hrpL and house-keeping gene trp,"[2]; Pst DC3000 reporter genes, luciferase activity",does not inhibit
CCCCCCCCCCCC(N)=O [Compound T3SI-26],inhibition of AvrPto secretion in Pst DC3000,[1],effectively inhibited
"CCCCCCCC/C=C\CCCCCCCCCCCC(=O)NCC [Compound T3SI-16, N-ethyl-13(Z)-Docosenamide]",inhibition of AvrPto secretion in Pst DC3000,[1],effectively inhibited
"CCCCCCCCc1ccc(CCCCCCCCCCCC(N)=O)cc1 [Compound T3SI-22, 12-(4-octylphenyl)dodecanamide]",abundance of AvrPto in total protein (bacteria),[1],decrease
"CCCCCCCC/C=C\CCCCCCCCCCCC(=O)NO [Compound T3SI-24, (Z)—N-hydroxydocos-13-enamide]",abundance of AvrPto in total protein (bacteria),[1],decrease
"C=CCCCCCCCCCCCC(N)=O [Compound T3SI-12, 13-Tetradecenoic acid amide]",inhibition of AvrPto secretion in Pst DC3000,[1],effectively inhibited
CCCCCC/C=C\CCCC(N)=O [Compound T3SI-29],abundance of AvrPto in total protein (bacteria),[1],decrease
CCCCCCCCCCCCCCCC(N)=O [Compound T3SI-9],inhibition of AvrPto secretion in Pst DC3000,[1],effectively inhibited
CCCCCCCC/C=C\CCCCCCCC(N)=O [Compound T3SI-5],abundance of AvrPto in total protein (bacteria),[1],decrease
CCCCCCCCCCCCCCCCCCCCCC(N)=O [Compound T3SI-7],inhibition of AvrPto secretion in Pst DC3000,[1],effectively inhibited
"CCCCCCCC/C=C\CCCCCCCCCCCCNC(N)=O [Compound T3SI-14, N-(13Z)-13-Docosen-1-ylurea]",inhibition of AvrPto secretion in Pst DC3000,[1],effectively inhibited
"CCCCCCCC/C=C/CCCCCCCCCCCC(N)=O [Compound T3SI-2, (E)-13-docosenamide]",inhibition of AvrPto secretion in Pst DC3000,[1],effectively inhibited
